Experimental data reported in patent publication US12194140B2, “Compositions for topical treatment of microbial infections” (Hennepin Life Sciences, priority 2012, dated 2025).
Entries after “also recorded” stand apart in the source; their conditions may differ. Blank lines part the entries; values can stand above or below the compound they belong to.

Legend:
E. coli (Watson strain) = test: GML and EDTA on the growth of E. coli; type: cell-based; conditions: 24 hours; EDTA 0.05 M to 0.00005 M; GML 100 μg/mL
Protocol: E. coli (Watson strain) was adjusted to I.2×10^7/mL in Todd Hewitt media. […] Cultures were incubated with shaking (200 RPM) for 24 hours, at which time samples were removed for plate counting. To further assess the combined effects of GML and EDTA, the experiment was carried out as above, and the relative effects on the growth of E. coli of EDTA alone or the combination of GML and EDTA were assessed in direct comparison to GML alone.

S. pyogenes (strain 594) = test: Antibacterial effects of various forms of GML; type: cell-based
Protocol: In order to test for potential differences between the optical isomers, the R form of GML, which is commercially available, was compared to a GML racemic mixture of the R and S forms. […] Antibacterial effects of these forms of GML was assessed on S. pyogenes (strain 594).

[1] = Solubility of Tenofovir in non-aqueous gels; type: physicochemical; conditions: 10 mg/mL
Protocol: Non-aqueous gels comprised of propylene glycol (73.55% w/w), polyethylene glycol 400 (25% w/w), and hydroxypropyl cellulose (1.25% w/w) at a range of pH from 4.0 to 4.5 were prepared. The anti-HIV drug Tenofovir was added to the gels at a concentration of 10 mg/mL to determine if the drug was soluble in the compositions.

Structure (SMILES): O=C(O)CN(CCN(CC(=O)O)CC(=O)O)CC(=O)O [EDTA, ethylenediaminetetraacetic acid]
anti-bacterial activity on growth of E. coli (CFU/mL) (E. coli (Watson strain)): inhibited the growth of E. coli somewhat, in a dose-dependent manner; also recorded: inhibited the growth of E. coli to some extent at higher concentrations

Structure (SMILES): CCCCCCCCCCCC(=O)OC(CO)CO [Glycerol monolaurate (GML) 2-position]
activity relative to the mixture of 2-position and ⅓-position GML forms (S. pyogenes (strain 594)): 2 fold

Structure (SMILES): CCCCCCCCCCCC(=O)OC[C@H](O)CO [R form GML]
antibacterial activity, R form versus mixture of R and S forms (S. pyogenes (strain 594)): same antibacterial activity

solubility in non-aqueous gel ([1]; pH 4.0-4.3): not soluble
solubility in non-aqueous gel ([1]; pH 4.4 or 4.5): soluble
Structure (SMILES): C[C@H](Cn1cnc2c(N)ncnc21)OCP(=O)(O)O [Tenofovir]

Structure (SMILES): CCCCCCCCCCCC(=O)OCC(O)CO (stereo not drawn) [mixture of R and S form GML]
antibacterial activity, R form versus mixture of R and S forms (S. pyogenes (strain 594)): same antibacterial activity
